This note sets out measurements from patent US9457033B2, “Steroid alkaloids and uses thereof as antimicrobial agents against electron transport-deficient microbes and as potentiators for antimicrobial agents against pathogenic bacteria” (priority 2011, dated 2016).

The structures appear in SMILES notation. Converted amounts (≈) assume the structure as drawn. Read-outs that look alike come from different tables or passages of the source. Some results are limits rather than exact numbers.

In test [1] the test system is S. aureus SCV CF07S. The test can be described thus: microbe, parasite or virus in culture. The format is cell-based. The note with it: Staphylococcus aureus, SCVCF07S; Tomatidine (50 μg); menadione auxotrophy; 24 hours at 37° C. with O2; DMSO control 0; read-out: Diameter of inhibition zone.
In test [2] the test system is S. aureus SCV NewbouldΔhemB. Nature of the test: MIC, microdilution in BHI 48 h. The format is cell-based, Staphylococcus aureus. The note with it: Staphylococcus aureus. (In broth dilution the organism is exposed to a series of concentrations in liquid medium.)
The subject of test [3] is normal strain CF07-L. Nature of the test: Broth growth with gentamicin or tomatidine, visually evaluated (FIG. 5A). The note with it: gentamicin at 4 μg/ml or tomatidine at 0.12 μg/ml alone, 48 h.
The test system of test [4] is Clostridium perfringens ATCC 13124. The test can be described thus: microbe, parasite or virus in culture. Format: cell-based. Conditions: ATCC13124, 48 h, read-out: Diameter of inhibition zone.
For test [5], the system named is S. aureus Newbould (normal strain). The test can be described thus: MIC, microdilution in BHI 48 h. Conditions: Staphylococcus aureus; Newbould, normal strain; read-out: MIC. Format: cell-based, Staphylococcus aureus.
In test [6] the test system is S. aureus SCV CF1D-S. The test can be described thus: MIC, microdilution in BHI 48 h. The format is cell-based, Staphylococcus aureus. The note with it: Staphylococcus aureus, SCVCF1DS.
Test [7] relates to S. aureus CF1A-L (normal strain). Nature of the test: MIC, microdilution in BHI 48 h. The format is cell-based, Staphylococcus aureus. Conditions: Staphylococcus aureus; CF1A-L, normal strain; read-out: MIC.
In test [8] the test system is SCV NewbouldΔhemB. The test can be described thus: Tomatidine susceptibility with supplemental hemin, spotted on agar (FIG. 1A). The note with it: in the presence of supplemental hemin. Format: cell-based, Staphylococcus aureus. The procedure:
Normal (Newbould, CF07-L and CF1A-L), and SCV (NewbouldΔhemB (in the presence and absence of hemin), CF07-S (in the presence and absence of menadione) and CF1D-S) S. aureus strains were treated with various concentrations of tomatidine (4, 2, 1, 0.5, 0.25, 0.12 and 0.06 μg/ml) for 48 h in the Brain Hearth Infusion (BHI) medium at 35° C. and 10 μl samples were thereafter spotted on agar plated which were further incubated for 48 h before a picture was taken.

Test [9] has as its system S. aureus SCV CF07-S. The test can be described thus: MIC, microdilution in BHI 48 h (Examples 1, 3). Format: cell-based, Staphylococcus aureus.
Test [10] has as its system S. aureus CF07-L (normal strain). Nature of the test: MIC, microdilution in BHI 48 h (Examples 1, 3). The format is cell-based, Staphylococcus aureus.
The subject of test [11] is S. aureus SCV CF41A-S. The test can be described thus: microbe, parasite or virus in culture. The format is cell-based. Conditions: Staphylococcus aureus, SCVCF41AS, 24 h, read-out: Diameter of inhibition zone.
For test [12], the system named is S. aureus SCV NewbouldΔhemB. The test can be described thus: microbe, parasite or virus in culture. Format: cell-based. The note with it: Staphylococcus aureus, 24 h, read-out: Diameter of inhibition zone.
Test [13] deals with S. aureus ATCC 29213. Nature of the test: MIC, microdilution in BHI 48 h (Examples 1, 3). The format is cell-based, Staphylococcus aureus.

`C[C@H]1CC[C@]2(NC1)O[C@H]1C[C@H]3[C@@H]4CC[C@H]5C[C@@H](O)CC[C@]5(C)[C@H]4CC[C@]3(C)[C@H]1[C@@H]2C` [Tomatidine, tomatidine]: the zone of inhibition at 50 µg/disc is 22.5 mm in [1], 11 mm in [4], 21.5 mm in [11] and 23.5 mm in [12]. Besides, the MIC was 0.12 µg/mL (≈ 0.289 µM) in test [2]; more than 16 µg/mL in test [5]; 0.12 µg/mL (≈ 0.289 µM) in test [6]; more than 16 µg/mL in test [7]; 0.12 µg/mL in [9] (CF07-S + HQNO at 20 μg/ml); 0.12 µg/mL (≈ 0.289 µM) in [9] (CF07-S, without HQNO). Further, the MIC in test [9] (Staphylococcus aureus, SCVCF07S) is 0.12 µg/mL (≈ 0.289 µM); in test [10] (CF07-L + HQNO at 20 μg/ml) it was 0.5 µg/mL; in [10] (CF07-L, without HQNO) it was more than 16 µg/mL; in test [10] (Staphylococcus aureus, CF07-L, normal strain, read-out: MIC) it was more than 16 µg/mL; in [13] (ATCC 29213 + HQNO at 20 μg/ml), 0.12 to 0.25 µg/mL; in test [13] (ATCC 29213, without HQNO), more than 16 µg/mL. The MIC in test [13] (ATCC 29213 in MHBCA) is more than 16 µg/mL; in test [13] (Staphylococcus aureus, ATCC29213, ATCC 29213 in BHI, read-out: MIC), more than 16 µg/mL; in [13] (Staphylococcus aureus, ATCC29213, ATCC 29213, 1 μg/ml CCCP, read-out: MIC in presence of CCCP), 0.12 µg/mL. Moreover, the “growth, visually evaluated” value in test [3] is listed as “does not”. The susceptibility to tomatidine entry in [8] is recorded as “abolished”.

As a reminder, the zone of inhibition is the size of the clear area around the sample on an inoculated plate. A word on the MIC: it is the smallest concentration in the dilution series that meets the test's criterion for growth inhibition.
